# Results published in ChEMBL document CHEMBL3885861, “Open TG-GATES”.
# Species on record: Rattus norvegicus
# Test: Open TG-GATES - Regimen: Daily Repeat
# Assay type: toxicity, organism-based, Sprague-Dawley
# Design: regimen Daily Repeat, gender Male, age 6 weeks
# Conditions: in vivo, po, 400 mg/kg, route gavage, dose level Low; for APTT / Bas / Eos / Fbg / Hb / Ht / Lym / MCH / MCHC / MCV / Mono / Neu / PT / Plat / RBC / Ret / WBC: tissue Blood; for KIDNEY_L / KIDNEY_R / KIDNEY_TOTAL: tissue Kidney; for LIVER: tissue Liver; for A/G / ALP / ALT / AST / BUN / CRE / Ca / Cl / DBIL / GLC / IP / K / LDH / Na / PL / RALB / TBIL / TC / TG / TP / gamma-GTP: tissue Plasma
compound,measurement,setting,value
CCO [ALCOHOL],TERMINAL_BW,"72 h, time 3 day",236 g
same,APTT,"72 h, time 3 day",17.7 s
same,Bas,"72 h, time 3 day",0%
same,Eos,"72 h, time 3 day",1%
same,Fbg,"72 h, time 3 day",209.2 mg/dL
same,Hb,"72 h, time 3 day",13.4 g/dL
same,Ht,"72 h, time 3 day",39.9%
same,Lym,"72 h, time 3 day",73.4%
same,MCH,"72 h, time 3 day",21.9 pg
same,MCHC,"72 h, time 3 day",33.7%
same,MCV,"72 h, time 3 day",65 fL
same,Mono,"72 h, time 3 day",8.4%
same,Neu,"72 h, time 3 day",17%
same,PT,"72 h, time 3 day",11.1 s
same,Plat,"72 h, time 3 day",134.3 x10_4/uL
same,RBC,"72 h, time 3 day",614.8 x10_4/ul
same,Ret,"72 h, time 3 day",7.6%
same,WBC,"72 h, time 3 day",100.6 x10_2/uL
same,KIDNEY_L,"72 h, time 3 day",1 g
same,KIDNEY_R,"72 h, time 3 day",1.1 g
same,KIDNEY_TOTAL,"72 h, time 3 day",2.1 g
same,LIVER,"72 h, time 3 day",11.5 g
same,A/G,"72 h, time 3 day",2.3
same,ALP,"72 h, time 3 day",965.4 IU/L
same,ALT,"72 h, time 3 day",33 IU/L
same,AST,"72 h, time 3 day",63.8 IU/L
same,BUN,"72 h, time 3 day",17.2 mg/dL
same,CRE,"72 h, time 3 day",0.5 mg/dL
same,Ca,"72 h, time 3 day",11.1 mg/dL
same,Cl,"72 h, time 3 day",104.4 meq/L
same,DBIL,"72 h, time 3 day",0.022 mg/dL
same,GLC,"72 h, time 3 day",198 mg/dL
same,IP,"72 h, time 3 day",7.9 mg/dL
same,K,"72 h, time 3 day",4.5 meq/L
same,LDH,"72 h, time 3 day",103.4 IU/L
same,Na,"72 h, time 3 day",140.6 meq/L
same,PL,"72 h, time 3 day",140.6 mg/dL
same,RALB,"72 h, time 3 day",4 g/dL
same,TBIL,"72 h, time 3 day",0.3 mg/dL
same,TC,"72 h, time 3 day",73 mg/dL
same,TG,"72 h, time 3 day",82.8 mg/dL
same,TP,"72 h, time 3 day",5.7 g/dL
same,gamma-GTP,"72 h, time 3 day",2.4 IU/L
same,TERMINAL_BW,"[…], time 7 day",263.9 g
same,TERMINAL_BW,"[…], time 14 day",307 g
same,TERMINAL_BW,"[…], time 28 day",352 g
same,APTT,"[…], time 7 day",17.6 s
same,Bas,"[…], time 7 day",0%
same,Eos,"[…], time 7 day",0.8%
same,Fbg,"[…], time 7 day",219.6 mg/dL
same,Hb,"[…], time 7 day",14.1 g/dL
same,Ht,"[…], time 7 day",41.5%
same,Lym,"[…], time 7 day",79.6%
same,MCH,"[…], time 7 day",21.1 pg
same,MCHC,"[…], time 7 day",34.1%
same,MCV,"[…], time 7 day",62 fL
same,Mono,"[…], time 7 day",5.2%
same,Neu,"[…], time 7 day",14.2%
same,PT,"[…], time 7 day",11.2 s
same,Plat,"[…], time 7 day",133.9 x10_4/uL
same,RBC,"[…], time 7 day",669.2 x10_4/ul
same,Ret,"[…], time 7 day",5.7%
same,WBC,"[…], time 7 day",101.8 x10_2/uL
same,APTT,"[…], time 14 day",16.7 s
same,Bas,"[…], time 14 day",0%
same,Eos,"[…], time 14 day",1%
same,Fbg,"[…], time 14 day",217.6 mg/dL
same,Hb,"[…], time 14 day",15 g/dL
same,Ht,"[…], time 14 day",43.7%
same,Lym,"[…], time 14 day",80.6%
same,MCH,"[…], time 14 day",20.2 pg
same,MCHC,"[…], time 14 day",34.3%
same,MCV,"[…], time 14 day",58.9 fL
same,Mono,"[…], time 14 day",5.6%
same,Neu,"[…], time 14 day",12.8%
same,PT,"[…], time 14 day",11.3 s
same,Plat,"[…], time 14 day",127.7 x10_4/uL
same,RBC,"[…], time 14 day",742.4 x10_4/ul
same,Ret,"[…], time 14 day",4.2%
same,WBC,"[…], time 14 day",122.9 x10_2/uL
same,APTT,"[…], time 28 day",17.2 s
same,Bas,"[…], time 28 day",0%
same,Eos,"[…], time 28 day",1.6%
same,Fbg,"[…], time 28 day",212 mg/dL
same,Hb,"[…], time 28 day",15.7 g/dL
same,Ht,"[…], time 28 day",46.9%
same,Lym,"[…], time 28 day",80.4%
same,MCH,"[…], time 28 day",18.8 pg
same,MCHC,"[…], time 28 day",33.6%
same,MCV,"[…], time 28 day",55.9 fL
same,Mono,"[…], time 28 day",6%
same,Neu,"[…], time 28 day",12.4%
same,PT,"[…], time 28 day",11.3 s
same,Plat,"[…], time 28 day",126.5 x10_4/uL
same,RBC,"[…], time 28 day",839 x10_4/ul
same,Ret,"[…], time 28 day",7.1%
same,WBC,"[…], time 28 day",104.7 x10_2/uL
same,KIDNEY_L,"[…], time 7 day",1.1 g
same,KIDNEY_R,"[…], time 7 day",1.1 g
same,KIDNEY_TOTAL,"[…], time 7 day",2.2 g
same,KIDNEY_L,"[…], time 14 day",1.2 g
same,KIDNEY_R,"[…], time 14 day",1.2 g
same,KIDNEY_TOTAL,"[…], time 14 day",2.3 g
same,KIDNEY_L,"[…], time 28 day",1.3 g
same,KIDNEY_R,"[…], time 28 day",1.3 g
same,KIDNEY_TOTAL,"[…], time 28 day",2.6 g
same,LIVER,"[…], time 7 day",12.6 g
same,LIVER,"[…], time 14 day",13.1 g
same,LIVER,"[…], time 28 day",13.5 g
same,A/G,"[…], time 7 day",2.3
same,ALP,"[…], time 7 day",771.4 IU/L
same,ALT,"[…], time 7 day",33.2 IU/L
same,AST,"[…], time 7 day",63.4 IU/L
same,BUN,"[…], time 7 day",20.8 mg/dL
same,CRE,"[…], time 7 day",0.5 mg/dL
same,Ca,"[…], time 7 day",10.6 mg/dL
same,Cl,"[…], time 7 day",104.6 meq/L
same,DBIL,"[…], time 7 day",0 mg/dL
same,GLC,"[…], time 7 day",197 mg/dL
same,IP,"[…], time 7 day",8.1 mg/dL
same,K,"[…], time 7 day",4.7 meq/L
same,LDH,"[…], time 7 day",95 IU/L
same,Na,"[…], time 7 day",141.6 meq/L
same,PL,"[…], time 7 day",158.2 mg/dL
same,RALB,"[…], time 7 day",4.1 g/dL
same,TBIL,"[…], time 7 day",0.4 mg/dL
same,TC,"[…], time 7 day",76.2 mg/dL
same,TG,"[…], time 7 day",156.4 mg/dL
same,TP,"[…], time 7 day",5.8 g/dL
same,gamma-GTP,"[…], time 7 day",1.4 IU/L
same,A/G,"[…], time 14 day",2
same,ALP,"[…], time 14 day",804.6 IU/L
same,ALT,"[…], time 14 day",36 IU/L
same,AST,"[…], time 14 day",59.2 IU/L
same,BUN,"[…], time 14 day",19.2 mg/dL
same,CRE,"[…], time 14 day",0.5 mg/dL
same,Ca,"[…], time 14 day",11 mg/dL
same,Cl,"[…], time 14 day",105.2 meq/L
same,DBIL,"[…], time 14 day",0.028 mg/dL
same,GLC,"[…], time 14 day",207.4 mg/dL
same,IP,"[…], time 14 day",7.4 mg/dL
same,K,"[…], time 14 day",4.2 meq/L
same,LDH,"[…], time 14 day",103.2 IU/L
same,Na,"[…], time 14 day",142.2 meq/L
same,PL,"[…], time 14 day",150.8 mg/dL
same,RALB,"[…], time 14 day",3.9 g/dL
same,TBIL,"[…], time 14 day",0.4 mg/dL
same,TC,"[…], time 14 day",73 mg/dL
same,TG,"[…], time 14 day",116.8 mg/dL
same,TP,"[…], time 14 day",5.9 g/dL
same,gamma-GTP,"[…], time 14 day",0.6 IU/L
same,A/G,"[…], time 28 day",1.6
same,ALP,"[…], time 28 day",710 IU/L
same,ALT,"[…], time 28 day",30.2 IU/L
same,AST,"[…], time 28 day",64 IU/L
same,BUN,"[…], time 28 day",20 mg/dL
same,CRE,"[…], time 28 day",0.6 mg/dL
same,Ca,"[…], time 28 day",10.4 mg/dL
same,Cl,"[…], time 28 day",107 meq/L
same,DBIL,"[…], time 28 day",0.002 mg/dL
same,GLC,"[…], time 28 day",205.6 mg/dL
same,IP,"[…], time 28 day",6.4 mg/dL
same,K,"[…], time 28 day",4.3 meq/L
same,LDH,"[…], time 28 day",96.4 IU/L
same,Na,"[…], time 28 day",140.4 meq/L
same,PL,"[…], time 28 day",141.4 mg/dL
same,RALB,"[…], time 28 day",3.8 g/dL
same,TBIL,"[…], time 28 day",0.3 mg/dL
same,TC,"[…], time 28 day",69.4 mg/dL
same,TG,"[…], time 28 day",113.6 mg/dL
same,TP,"[…], time 28 day",6.1 g/dL
same,gamma-GTP,"[…], time 28 day",1.4 IU/L
